From PubChem BioAssay AID1918946 (Molecular Pharmacology Branch, DTP, NCI, 2023)

Tested on: 885512-296-R-J2-PDC complex spheroid viability
Assay: Anticancer human tumor 885512-296-R-J2-PDC patient-derived breast carcinoma cell line growth inhibition
Details: for IC50: curve of first compound; for viability, T/C: stronger effect = lower value
In short: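 Complex spheroids of tumor cells with HUVEC and human MSCs, exposed to iadademstat combined with other agents. Each agent tested in half-log steps from near clinical Cmax (else 10 microM top), DMSO ≤0.25%.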

[1] = second compound 0.1 µM, first compound 0.000316 µM
[2] = second compound 0.1 µM, first compound 0.001 µM
[3] = second compound 0.1 µM, first compound 0.00316 µM
[4] = second compound 0.1 µM, first compound 0.01 µM
[5] = second compound 0.1 µM, first compound 0.0316 µM
[6] = second compound 0.1 µM, first compound 0.1 µM
[7] = second compound 0.316 µM, first compound 0.000316 µM
[8] = second compound 0.316 µM, first compound 0.001 µM
[9] = second compound 0.316 µM, first compound 0.00316 µM
[10] = second compound 0.316 µM, first compound 0.01 µM
[11] = second compound 0.316 µM, first compound 0.0316 µM
[12] = second compound 0.316 µM, first compound 0.1 µM
[13] = second compound 1 µM, first compound 0.000316 µM
[14] = second compound 1 µM, first compound 0.001 µM
[15] = second compound 1 µM, first compound 0.00316 µM
[16] = second compound 1 µM, first compound 0.01 µM
[17] = second compound 1 µM, first compound 0.0316 µM
[18] = second compound 1 µM, first compound 0.1 µM
[19] = second compound 3.16 µM, first compound 0.000316 µM
[20] = second compound 3.16 µM, first compound 0.001 µM
[21] = second compound 3.16 µM, first compound 0.00316 µM
[22] = second compound 3.16 µM, first compound 0.01 µM
[23] = second compound 3.16 µM, first compound 0.0316 µM
[24] = second compound 3.16 µM, first compound 0.1 µM
[25] = second compound 10 µM, first compound 0.000316 µM
[26] = second compound 10 µM, first compound 0.001 µM
[27] = second compound 10 µM, first compound 0.00316 µM
[28] = second compound 10 µM, first compound 0.01 µM
[29] = second compound 10 µM, first compound 0.0316 µM
[30] = second compound 10 µM, first compound 0.1 µM
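Further: spheroids exposed to agents for 7 days before viability read.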

Row | Structure (SMILES) | IC50 (second compound 0.1 µM) | IC50 (second compound 0.316 µM) | IC50 (second compound 1 µM) | IC50 (second compound 3.16 µM) | IC50 (second compound 10 µM) | viability, T/C [3] | viability, T/C [4] | viability, T/C [5] | viability, T/C [6] | viability, T/C [9] | viability, T/C [10] | viability, T/C [11] | viability, T/C [12] | viability, T/C [15] | viability, T/C [16] | viability, T/C [17] | viability, T/C [18] | viability, T/C [21] | viability, T/C [22] | viability, T/C [23] | other results
1 | CC(C)CC(NC(=O)C(Cc1ccccc1)NC(=O)c1cnccn1)B(O)O (stereo not given) + NC1CCC(NC2CC2c2ccccc2)CC1 | 1.3 nM | 1.34 nM | 1.38 nM | 1.33 nM | 1.09 nM | 2.42% | 0.24% | 7.32% | 3.74% | 2.51% | 0.43% | 7.09% | 3.61% | 2.46% | 0.35% | 3.66% | 3.45% | 1.59% | 0.23% | 0.08% | viability, T/C [1]: 149%; viability, T/C [2]: 63.9%; viability, T/C [7]: 134%; viability, T/C [8]: 65.7%; viability, T/C [13]: 152%; viability, T/C [14]: 68.4%; viability, T/C [19]: 137%; viability, T/C [20]: 66.2%; viability, T/C [24]: 0.08%; viability, T/C [25]: 138%; viability, T/C [26]: 54%; viability, T/C [27]: 1.4%; viability, T/C [28]: 0.2%; viability, T/C [29]: 0.09%; viability, T/C [30]: 0.13%
2 | CC(C)CC(NC(=O)CNC(=O)c1cc(Cl)ccc1Cl)B1OC(=O)CC(CC(=O)O)(C(=O)O)O1 (stereo not given) + NC1CCC(NC2CC2c2ccccc2)CC1 | 6.41 nM | 6.9 nM | 6.61 nM | 6.51 nM | 5.07 nM | 102% | 16.9% | 4.82% | 8.2% | 106% | 23.3% | 3.92% | 3.86% | 103% | 20.4% | 4.02% | 6.64% | 110% | 14.4% | 5.03% | viability, T/C [1]: 148%; viability, T/C [2]: 136%; viability, T/C [7]: 125%; viability, T/C [8]: 126%; viability, T/C [13]: 121%; viability, T/C [14]: 131%; viability, T/C [19]: 124%; viability, T/C [20]: 117%; viability, T/C [24]: 1.02%; viability, T/C [25]: 107%; viability, T/C [26]: 107%; viability, T/C [27]: 76.3%; viability, T/C [28]: 12%; viability, T/C [29]: 2.47%; viability, T/C [30]: 0.56%
3 | COc1cc(Nc2ncc3c(n2)-c2ccc(Cl)cc2C(c2c(F)cccc2OC)=NC3)ccc1C(=O)O + NC1CCC(NC2CC2c2ccccc2)CC1 | 8.96 nM | 7.35 nM | 7.37 nM | 9.53 nM | 5.12 nM | 78.8% | 42.8% | 33.2% | 24% | 90.6% | 31.3% | 34.2% | 39.1% | 90.9% | 29.4% | 37.3% | 22.1% | 87.4% | 42.1% | 33.7% | viability, T/C (second compound 0.1 µM, first compound 0.316 µM): 12.3%; viability, T/C (second compound 0.1 µM, first compound 1 µM): 13.2%; viability, T/C (second compound 0.316 µM, first compound 0.316 µM): 14.5%; viability, T/C (second compound 0.316 µM, first compound 1 µM): 11.5%; viability, T/C (second compound 1 µM, first compound 0.316 µM): 17.5%; viability, T/C (second compound 1 µM, first compound 1 µM): 13.2%; viability, T/C [24]: 38.1%; viability, T/C (second compound 3.16 µM, first compound 0.316 µM): 14.6%; viability, T/C (second compound 3.16 µM, first compound 1 µM): 16.6%; viability, T/C [27]: 70.5%; viability, T/C [28]: 21.4%; viability, T/C [29]: 29.7%; viability, T/C [30]: 22.7%; viability, T/C (second compound 10 µM, first compound 0.316 µM): 17.1%; viability, T/C (second compound 10 µM, first compound 1 µM): 15.3%
